In the NIST ThermoML archive (doi:10.1021/je300610y):

Experiments:
[1] = Crystal; for vapor or sublimation pressure: Transpiration method; for Normal melting temperature: DTA
[2] = Molar enthalpy of transition or fusion; conditions: Crystal; DSC

CC(C)c1ccc(NC2=NCCC3(CCCCC3)S2)cc1
[1]
Conditions | vapor or sublimation pressure [kPa]
365.15 K | 1.98e-05
366.15 K | 2.34e-05
369.15 K | 3.21e-05
371.15 K | 3.7e-05
373.15 K | 4.74e-05
375.15 K | 5.94e-05
376.15 K | 7.14e-05
379.15 K | 8.3e-05
381.15 K | 0.0001048
383.15 K | 0.0001249
385.15 K | 0.0001533
386.15 K | 0.0001933
388.15 K | 0.0001988
390.15 K | 0.0002603
393.15 K | 0.0003364

Conditions | Molar enthalpy of transition or fusion [kcal/mol] | Normal melting temperature [°C]
[1] | – | 139.6
[2] | 6.98 | –

Cc1ccc(NC2=NCCC3(CCCCC3)S2)cc1Cl
[1]
Conditions | vapor or sublimation pressure [kPa]
385.15 K | 7.9e-06
386.15 K | 8.8e-06
387.15 K | 1.13e-05
388.15 K | 1.22e-05
389.15 K | 1.29e-05
391.15 K | 1.59e-05
393.15 K | 1.79e-05
395.15 K | 2.05e-05
396.15 K | 2.29e-05
397.15 K | 2.95e-05
399.15 K | 3.31e-05
401.15 K | 3.4e-05
402.15 K | 3.75e-05
404.15 K | 4.55e-05
405.7 K | 5.09e-05
406.4 K | 5.34e-05
407.3 K | 6.09e-05

Conditions | Molar enthalpy of transition or fusion [kcal/mol] | Normal melting temperature [°C]
[1] | – | 149.2
[2] | 7.93 | –

FC(F)(F)c1ccc(NC2=NCCC3(CCCCC3)S2)cc1
[1]
Conditions | vapor or sublimation pressure [kPa]
384.15 K | 4.95e-05
385.15 K | 5.32e-05
386.15 K | 5.53e-05
387.15 K | 6.2e-05
389.15 K | 7.35e-05
390.15 K | 8.5e-05
392.15 K | 9.41e-05
393.15 K | 0.0001076
394.15 K | 0.0001185
395.15 K | 0.0001376
397.15 K | 0.0001497
398.15 K | 0.0001884
399.15 K | 0.0002215
401.15 K | 0.0002241
402.15 K | 0.0002762
403.15 K | 0.0002858

Conditions | Molar enthalpy of transition or fusion [kcal/mol] | Normal melting temperature [°C]
[1] | – | 149.7
[2] | 7.86 | –

Brc1ccc(NC2=NCCC3(CCCCC3)S2)cc1 [N-(4-bromophenyl)-1-thia-3-azaspiro[5.5]undec-2-en-2-amine]
[1]
Conditions | vapor or sublimation pressure [kPa]
374.15 K | 5.7e-06
375.15 K | 7.6e-06
378.15 K | 1.05e-05
380.15 K | 1.35e-05
385.15 K | 1.92e-05
388.15 K | 3.2e-05
391.15 K | 4.17e-05
393.15 K | 5.5e-05
395.15 K | 6.74e-05
397.15 K | 7.99e-05
399.15 K | 9.5e-05
401.15 K | 0.0001235
403.15 K | 0.0001454
405.15 K | 0.0001813
406.15 K | 0.0002145
409.15 K | 0.000277
411.15 K | 0.0003482

Conditions | Molar enthalpy of transition or fusion [kcal/mol] | Normal melting temperature [°C]
[1] | – | 175.2
[2] | 10.6 | –

Clc1ccc(NC2=NCCC3(CCCCC3)S2)cc1 [N-(4-chlorophenyl)-1-thia-3-azaspiro[5.5]undec-2-en-2-amine]
[1]
Conditions | vapor or sublimation pressure [kPa]
370.15 K | 1.08e-05
372.15 K | 1.28e-05
373.15 K | 1.3e-05
376.15 K | 2e-05
377.15 K | 2.79e-05
380.15 K | 3.58e-05
383.15 K | 5.41e-05
384.15 K | 7.05e-05
387.15 K | 7.69e-05
389.15 K | 8.96e-05
391.15 K | 0.0001171
393.15 K | 0.0001487
395.15 K | 0.0001855
398.15 K | 0.0002176
400.15 K | 0.0002803
403.15 K | 0.0003898

Conditions | Molar enthalpy of transition or fusion [kcal/mol] | Normal melting temperature [°C]
[1] | – | 162.6
[2] | 10 | –

CCc1ccc(NC2=NCCC3(CCCCC3)S2)cc1 [N-(4-ethylphenyl)-1-thia-3-azaspiro[5.5]undec-2-en-2-amine]
[1]
Conditions | vapor or sublimation pressure [kPa]
366.15 K | 3.45e-05
367.15 K | 4.16e-05
370.15 K | 5.31e-05
372.15 K | 7.08e-05
374.15 K | 8.22e-05
376.15 K | 0.0001151
377.15 K | 0.0001434
380.15 K | 0.0001583
382.15 K | 0.0002134
384.15 K | 0.0002567
386.15 K | 0.000327
387.15 K | 0.0003632
390.15 K | 0.0004631
392.15 K | 0.000642
394.15 K | 0.0007981

Conditions | Molar enthalpy of transition or fusion [kcal/mol] | Normal melting temperature [°C]
[1] | – | 139.4
[2] | 10.2 | –

Cc1ccc(NC2=NCCC3(CCCCC3)S2)cc1 [N-(4-methylphenyl)-1-thia-3-azaspiro[5.5]undec-2-en-2-amine]
[1]
Conditions | vapor or sublimation pressure [kPa]
353.15 K | 9.4e-06
355.15 K | 1.29e-05
356.15 K | 1.58e-05
360.15 K | 2.24e-05
363.15 K | 3.02e-05
365.15 K | 3.66e-05
366.15 K | 4.54e-05
369.15 K | 6.73e-05
372.15 K | 9.76e-05
375.15 K | 0.0001314
376.15 K | 0.0001366
377.15 K | 0.0001547
378.15 K | 0.0001852
380.15 K | 0.0002336
384.15 K | 0.0003508

Conditions | Molar enthalpy of transition or fusion [kcal/mol] | Normal melting temperature [°C]
[1] | – | 128.1
[2] | 7.1 | –

c1ccc(NC2=NCCC3(CCCCC3)S2)cc1 [N-phenyl-1-thia-3-azaspiro[5.5]undec-2-en-2-amine]
[1]
Conditions | vapor or sublimation pressure [kPa]
342.15 K | 6.9e-06
343.15 K | 8.2e-06
345.15 K | 1.01e-05
347.15 K | 1.32e-05
349.15 K | 1.47e-05
350.15 K | 1.8e-05
352.15 K | 2.39e-05
355.15 K | 3.14e-05
357.15 K | 4.42e-05
360.15 K | 6.22e-05
361.15 K | 6.34e-05
362.15 K | 9.1e-05
365.15 K | 0.0001035
367.15 K | 0.0001298
368.15 K | 0.0001351
369.15 K | 0.0001541

Conditions | Molar enthalpy of transition or fusion [kcal/mol] | Normal melting temperature [°C]
[1] | – | 113.4
[2] | 5.16 | –
